Experimental data: PubChem BioAssay (NCI)
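Exposure lasted 48 hours, with cells grown in 96-well plates and compounds tested at five concentrations. GI50: concentration for 50% inhibition of growth. At the TGI there is no net growth.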 Where a SMILES comes first, the peptide text is derived from it. The star is where a group is joined. Boc = CC(C)(C)OC(=O)*

Legend:
Assay in all cases: NCI anticancer screen, dose series, 48 h
[1] = system: CCRF-CEM leukemia
[2] = system: UACC-62 melanoma
[3] = system: SK-MEL-28 melanoma
[4] = system: U251 CNS
[5] = system: PC-3 prostate
[6] = system: HOP-62 NSCLC
[7] = system: A498 renal
[8] = system: SK-MEL-5 melanoma
[9] = system: MDA-N
[10] = system: IGROV1 ovarian

SMILES	TGI [1] [µM]	TGI [2] [µM]	TGI [3] [µM]	TGI [4] [µM]	TGI [5] [µM]	TGI [6] [µM]	TGI [7] [µM]	TGI [8] [µM]	TGI [9] [µM]	TGI [10] [µM]	GI50 [7] [µM]	GI50 [1] [µM]	GI50 [2] [µM]	GI50 [3] [µM]	GI50 [4] [µM]	GI50 [8] [µM]	GI50 [5] [µM]	GI50 [10] [µM]
O=C1CC(c2cccc(Cl)c2)n2cccc21 (configuration not stated)	> 100	> 100	> 100	> 100	> 100	> 100	> 100											
CCn1c2c(c3c(C(=O)OC)c(O)ccc31)C(=O)c1ccccc1C2=O	43.6		42.6	36.3	42.7	30.1		27.6	29.9	15.3								
O=C(CSc1nc2ccc(I)cc2c(=O)n1Cc1ccccc1)Nc1ccc(Br)cc1	> 100	> 100	> 100	> 100	58.6	> 100	68.1	> 100		> 100								
COC(=O)c1c(O)ccc2c1c1c(n2C)C(=O)c2ccccc2C1=O	51.9		> 100	67.5	> 100	28	> 100	> 100		21.8								
OC1CN=C2c3ccccc3C(O)(c3ccc(Cl)cc3)N2C1 (configuration not stated)	> 100	> 100	> 100	> 100	> 100	> 100			> 100	> 100								
CC1CC[C@]2(C(=O)O)CCC3(C)C(=C2[C@H]1C)C=CC1[C@@]2(C)CC[C@H](O)C(C)(C)C2CC[C@]13C (some centres not stated)	> 100	> 100	98.4	97.7	80.1	74.8		56.6	> 100	98.2								
NCCCCCCNc1cc(-c2cccc(OC(F)(F)F)c2)nc2ccc(N3CCCC3)cc12							2.81				1.46							
S=C1CC(c2ccc(Cl)cc2)Sc2ccccc2N1 (configuration not stated)	> 100	> 100	> 100	> 100	> 100	35.1		> 100	> 100	> 100								
O=C(c1ccco1)N(C(=S)N1CCN(c2ccccc2)CC1)c1ccccc1	> 100	> 100	> 100	> 100		> 100		> 100		> 100								
COc1cc(C2c3cc4c(cc3OC(N3CCOCC3)C2C)OCO4)cc(OC)c1O (configuration not stated)	> 100	> 100	> 48.6	> 53.6	> 86.2	35.5	41.2	17.5		> 70.8								
CC(=O)O[C@H]1/C(=C/c2ccc(N(C)C)cc2)C[C@H]2[C@@H]3CC=C4C[C@@H](N5CCCC5)CC[C@]4(C)[C@H]3CC[C@]12C		> 100	> 100	> 100	> 100	> 100	> 100	> 100		> 100								
CCCCNC(=S)Nc1nc(C(=O)NNS(=O)(=O)c2ccccc2)cs1	> 100	59.2		> 100	93.1	> 100	> 100	31		> 100								
COc1ccc(-c2cn3ccnc3c(-c3ccc4ncn(C5CCCCC5)c4c3)n2)cc1	> 100	> 100	> 100	> 100	> 100		> 100	3.2		> 100	0.742	1.64	0.434	2.1	2.22	0.698	0.621	0.921
CCOC(=O)/C=C(/C(=O)OCC)n1cc(C)c(=O)n(Cc2cnnn2CCCCOC(C)=O)c1=O	4.57	57.7	> 100	> 100	> 100	> 100		83.4	> 100	38.3								
Cc1nnc2c3c(-c4ccccc4)c(-c4ccccc4)oc3nc(N(C)C)n12	> 100	> 100	> 100	> 100			> 100	> 100		> 100								
CC(NC(=O)C(NC(=O)OC(C)(C)C)C(C)C)C(=O)NCC(=O)O (stereo not drawn) (Boc-Val-Ala-Gly-OH; configuration not given here)		> 100	> 100	> 100	> 100	> 100		> 100	> 100	> 100								
COc1ccc(CNc2nc3ccccc3nc2-c2cccs2)cc1	> 100	> 100	> 100	> 100		> 100	> 100	> 100		> 100								
COC(=O)C(Cc1ccccc1)NC(=O)CNC(=O)CSc1nnc(COc2ccc(Cl)cc2)n1-c1ccccc1 (configuration not stated)	7.42	28.6	34.6	32.8	31.3	35.3	29.4	29.8		29.1								
N#CC(c1ccccc1)c1cccc2ccccc12 (configuration not stated)		> 100	> 100	> 100	71.6	> 100	76.5	34.3		> 100								
